From patent US20210060138A1 (priority 2019, published 2021) come the findings set out here.

Converted amounts (≈) assume the structure as drawn.

The test system of one assay is HIV-1NL4-3-GFP-P2A-Nef. Briefly: ART and LASER ART drug cocktails at 5×EC90 in HIV-1 infected Jurkat T cell line. As to conditions: Human immunodeficiency virus 1, Jurkat, read-out: 5×EC90 values. The class given is cell-based. Here is the method: FIGS. 6A-6C show the combined effect of ART and CRISPR/Cas9 on HIV-1 infection of Jurkat T cell line. FIG. 6A: Experimental design and procedure. Jurkat cells were infected with HIV-1NL4-3-GFP-P2A-Nef at multiplicity of infection (MOI) 0.001 and 0.01. […] At day 6 of infection the drugs were removed to allow efficient lentiviral transduction of Cas9 and gRNAs LTR A and LTR B which was conducted at day 7. At day 8 antiretrovirals were added back and continued for another 4 days. Twelve days after HIV-1 infection cells were collected, genomic DNA was extracted and analyzed by PCR for CRISPR-Cas9 mediated cleavage of viral LTR sequences. FIG. 6B: Quantification of the level of infection at day 7. Cells were fixed with 2% PFA and FACS analysis was performed to measure GFP expressing population for HIV infection/replication in vitro. FIG. 6C: Similar to FIG. 6B with exception that cells were treated with modified ART.
In vitro Infection: HEK-293T cells were transfected using CaPO4 precipitation method in the presence of chloroquine (50 μM) with 30 μg of pNL4-3-EGFP-P2A-Nef plasmid (13)/2.5×10^6 cells/100 mm dish. Next day, medium was replaced; and 24 h and 48 h later supernatants were collected, clarified at 3000 RPM for 10 minutes, filtered through 0.45 um filter, and concentrated by ultracentrifugation for 2 h with 20% sucrose cushion (25). Viral pellets were resuspended in HBSS by gentle agitation overnight, aliquoted, and tittered in Jurkat cells by FACS for GFP expression. Jurkat cells were infected by spinoculation for 1.5 h (26), 32° C. in 500 μl inoculum containing 8 μg/ml polybrene then resuspended and left for 4 h then 500 μl of growth medium was added. Next day, cells were washed 3 times with PBS and re-suspended in growth medium.
Regarding `Nc1nc(NC2CC2)c2ncn([C@H]3C=C[C@@H](CO)C3)c2n1` [ABC, abacavir], the concentration for an effect of 90% (EC90) (commonly the concentration at which the effect reaches the 90% level) is 8.3 µg/mL (≈ 29 µM).
In the case of `C[C@@H]1CCO[C@H]2Cn3cc(C(=O)NCc4ccc(F)cc4F)c(=O)c(O)c3C(=O)N12` [DTG, dolutegravir], the EC90 worked out at 0.0111 µg/mL (≈ 0.0265 µM).
Still for that read-out and setting: the same measure for `Cc1cc(/C=C/C#N)cc(C)c1Nc1ccnc(Nc2ccc(C#N)cc2)n1` [RPV, rilpivirine]: 0.0033 µg/mL (≈ 0.00901 µM); for `Nc1ccn([C@@H]2CS[C@H](CO)O2)c(=O)n1` [3TC, lamivudine]: 17.2 µg/mL (≈ 75 µM).

Still in this assay, the particulars now being: concentration used in the cocktail, equal to 5×EC90.
As to `CCCCCCCCCCCCCC(=O)OCC1C=CC(n2cnc3c(NC4CC4)nc(N)nc32)C1` (stereo not shown) [MABC, myristoylated abacavir], the “5×EC90 values” stood at 14.4 µg/mL.
Still for that read-out and setting: the same measure for `CCCCCCCCCCCCCC(=O)Oc1c2n(cc(C(=O)NCc3ccc(F)cc3F)c1=O)C[C@@H]1OCC[C@@H](C)N1C2=O` [MDTG, myristoylated dolutegravir]: 0.0167 µg/mL; for `CCCCCCCCCCCCCC(=O)OCC1OC(n2ccc(N)nc2=O)CS1` (stereo not shown) [M3TC, myristoylated lamivudine]: 32.9 µg/mL.
